Read-outs that look alike come from different tables or passages of the source.
Tested on: MRSA USA 300
Experiment: microbe, parasite or virus in culture
Type: cell-based, Staphylococcus aureus
Details: for MIC: Staphylococcus aureus
Experimental: MRSA USA 300 and K. pneumoniae ATCC 700603 were employed to assess the development of resistance. From inoculated microtiter panels, an aliquot of the well with the highest concentration permitting growth was taken and back diluted in fresh media to a turbidity of a 0.5 McFarland standard. This suspension was then further diluted and used to inoculate a fresh MIC panel resulting in a final concentration of 5 × 10^6 CFU/mL. Panels were incubated according to CLSI guidelines (M07, 11th edition, 2018), MICs were recorded and the next inoculum was prepared from the well containing the highest concentration of drug that allowed growth in identical fashion as described above.

O=C(O)c1cn(C2CC2)c2cc(N3CCNCC3)c(F)cc2c1=O [ciprofloxacin, reference compound]
63 µg/mL: MIC (read-out: Concentration (MIC in drug resistance assay), MRSA USA 300, day 39)
2 µg/mL: MIC (96 h, read-out: Concentration (MIC in drug resistance assay), MRSA USA 300, day 4) | MIC (168 h, read-out: Concentration (MIC in drug resistance assay), MRSA USA 300, day 7) | MIC (240 h, read-out: Concentration (MIC in drug resistance assay), MRSA USA 300, day 10) | MIC (312 h, read-out: Concentration (MIC in drug resistance assay), MRSA USA 300, day 13) | MIC (336 h, read-out: Concentration (MIC in drug resistance assay), MRSA USA 300, day 14) | MIC (360 h, read-out: Concentration (MIC in drug resistance assay), MRSA USA 300, day 15) | MIC (384 h, read-out: Concentration (MIC in drug resistance assay), MRSA USA 300, day 16) | MIC (408 h, read-out: Concentration (MIC in drug resistance assay), MRSA USA 300, day 17) | MIC (432 h, read-out: Concentration (MIC in drug resistance assay), MRSA USA 300, day 18) | MIC (456 h, read-out: Concentration (MIC in drug resistance assay), MRSA USA 300, day 19) | MIC (504 h, read-out: Concentration (MIC in drug resistance assay), MRSA USA 300, day 21) | MIC (528 h, read-out: Concentration (MIC in drug resistance assay), MRSA USA 300, day 22) | MIC (552 h, read-out: Concentration (MIC in drug resistance assay), MRSA USA 300, day 23) | MIC (576 h, read-out: Concentration (MIC in drug resistance assay), MRSA USA 300, day 24) | MIC (600 h, read-out: Concentration (MIC in drug resistance assay), MRSA USA 300, day 25) | MIC (648 h, read-out: Concentration (MIC in drug resistance assay), MRSA USA 300, day 27) | MIC (672 h, read-out: Concentration (MIC in drug resistance assay), MRSA USA 300, day 28) | MIC (696 h, read-out: Concentration (MIC in drug resistance assay), MRSA USA 300, day 29)
32 µg/mL: MIC (read-out: Concentration (MIC in drug resistance assay), MRSA USA 300, day 32) | MIC (read-out: Concentration (MIC in drug resistance assay), MRSA USA 300, day 36) | MIC (read-out: Concentration (MIC in drug resistance assay), MRSA USA 300, day 37) | MIC (read-out: Concentration (MIC in drug resistance assay), MRSA USA 300, day 38)
64 µg/mL: MIC (read-out: Concentration (MIC in drug resistance assay), MRSA USA 300, day 40)
64 fold: increase in MIC after 40 passages (serial passage at sub-MIC)
4 µg/mL: MIC (192 h, read-out: Concentration (MIC in drug resistance assay), MRSA USA 300, day 8) | MIC (216 h, read-out: Concentration (MIC in drug resistance assay), MRSA USA 300, day 9) | MIC (288 h, read-out: Concentration (MIC in drug resistance assay), MRSA USA 300, day 12) | MIC (480 h, read-out: Concentration (MIC in drug resistance assay), MRSA USA 300, day 20) | MIC (624 h, read-out: Concentration (MIC in drug resistance assay), MRSA USA 300, day 26) | MIC (read-out: Concentration (MIC in drug resistance assay), MRSA USA 300, day 30)
16 µg/mL: MIC (read-out: Concentration (MIC in drug resistance assay), MRSA USA 300, day 33) | MIC (read-out: Concentration (MIC in drug resistance assay), MRSA USA 300, day 34) | MIC (read-out: Concentration (MIC in drug resistance assay), MRSA USA 300, day 35)
8 µg/mL: MIC (read-out: Concentration (MIC in drug resistance assay), MRSA USA 300, day 31)
0.5 µg/mL: MIC (24 h, read-out: Concentration (MIC in drug resistance assay), MRSA USA 300, day 1)
1 µg/mL: MIC (0 h, read-out: Concentration (MIC in drug resistance assay), MRSA USA 300, day 0) | MIC (48 h, read-out: Concentration (MIC in drug resistance assay), MRSA USA 300, day 2) | MIC (72 h, read-out: Concentration (MIC in drug resistance assay), MRSA USA 300, day 3) | MIC (120 h, read-out: Concentration (MIC in drug resistance assay), MRSA USA 300, day 5) | MIC (144 h, read-out: Concentration (MIC in drug resistance assay), MRSA USA 300, day 6) | MIC (264 h, read-out: Concentration (MIC in drug resistance assay), MRSA USA 300, day 11)
